According to patent US20260152533A1, “COMBINATION INHIBITORS FOR TREATING FIBROSIS” (Memorial Sloan-Kettering Cancer Center, priority 2021, published 2026):

Columns and labels:
[1] = system: pancreatic stellate cells (PSCs); assay: Growth experiments, PSCs; assay type: cell-based, mouse; details: 20% Gln, TGFβ
Text: (§1) NIH-3T3 cells were obtained from ATCC (CRL-1658); 293 T cells were obtained from ATCC (CRL-3216). PSCs were isolated from C57BL/6 mice by differential centrifugation as previously described^49 and their mesenchymal origin was validated by analyzing the expression of various mesenchymal and epithelial markers. MFBs were isolated from FVB/N mice by differential centrifugation as previously described^50. DB7 mouse breast cancer cells were obtained from Alexander Borowsky (University of California Davis Comprehensive Cancer Center, Sacramento, CA, USA) through an MTA to Ohio State University (OSU). KPC (Kras^LSL-G12D; Trp53^LSL-R172H; Pdx1-Cre) mouse PDAC cells were a gift from Scott Lowe (Memorial Sloan Kettering Cancer Center. (MSKCC)). […]
(§2) A total of 0.2×10^5 cells/well were plated in 24-well culture plates and media was changed and treatments started 5-6 hours later. Cell numbers at the start of treatment (day 0 “d 0”) and 1, 2 and 3 days later were counted using the Multisizer 4e (Beckman) and normalized to the cell number at d 0. In co-culture assays, a fraction of the cell population was analyzed by flow cytometry for GFP expression, and the rest counted with the Multisizer 4e. The number of KPC-GFP cells was determined by multiplying the fraction of GFP+ cells with the total number of cells.

[2] = system: mammary fibroblasts (MFBs); assay: Growth experiments, MFBs; assay type: cell-based, mouse; details: 20% Gln, TGFβ
Text: as §1, §2

TGFβ: transforming growth-factor beta; TGFβ-1 purchased from Peprotech
cell proliferation [1]: unable to proliferate
cell proliferation [2]: unable to proliferate
